Assay results published in ChEMBL document CHEMBL4689842, “EUbOPEN Chemogenomics Library wave 1” (2021).

Legend:
Assay type in all cases: toxicity, cell-based
[1] = tested on: U2OS; assay: Incucyte cell viability with U2OS; settings: human, 10 µM, compound concentration 10 uM
[2] = tested on: HEK-293T; assay: Incucyte cell viability with HEK293T; settings: human, 10 µM, compound concentration 10 uM
[3] = tested on: Fibroblast; assay: Incucyte cell viability with human fibroblast; settings: 10 µM, compound concentration 10 uM
[4] = 0 h, replicate number 1, timepoint 0 hours
[5] = 0 h, replicate number 2, timepoint 0 hours
[6] = 6 h, replicate number 1, timepoint 6 hours
[7] = 12 h, replicate number 1, timepoint 12 hours
[8] = 12 h, replicate number 2, timepoint 12 hours
[9] = 18 h, replicate number 1, timepoint 18 hours
[10] = 24 h, replicate number 1, timepoint 24 hours
[11] = 6 h, replicate number 2, timepoint 6 hours
[12] = 24 h, replicate number 2, timepoint 24 hours
[13] = 18 h, replicate number 2, timepoint 18 hours
Note: filed as whole numbers so only -1 and 0 and 1 occur.

Row | Compound | Growth Rate [1, 4] | Growth Rate [1, 5] | Growth Rate [1, 6] | Growth Rate [1, 7] | Growth Rate [1, 9] | Growth Rate [1, 10] | Growth Rate [2, 4] | Growth Rate [2, 5] | Growth Rate [2, 8] | Growth Rate [2, 9] | Growth Rate [2, 10] | Growth Rate [3, 6] | Growth Rate [3, 7] | Growth Rate [3, 9] | Growth Rate [3, 10] | Growth Rate [2, 6] | Growth Rate [2, 7] | Growth Rate [3, 4] | Growth Rate [1, 11] | Growth Rate [2, 12] | further results
1 | CC[C@H](CO)Nc1nc(NCc2ccccc2)c2ncn(C(C)C)c2n1 [SELICICLIB] | 1 | 0 | 0 | 0 | 0 | 0 | 0 | 1 | 0 | 1 | 0 | 0 | 0 | 0 | 0 |  |  |  |  |  | Growth Rate [1, 8]: 1; Growth Rate [2, 11]: 0; Growth Rate [3, 5]: 0
2 | C[C@@H](c1cccc(C#N)c1)n1cc(Cl)cc(C(N)=O)c1=N.Cl | 0 |  |  | 1 | 1 | 1 | 0 |  | 1 | 1 | 1 | 1 |  | 1 | 1 | 1 | 0 | 0 |  |  | Growth Rate [3, 5]: 1; Growth Rate [3, 11]: 0; Growth Rate [3, 8]: 0; Growth Rate [3, 12]: 0
3 | C[C@]12CCC(=O)C=C1CC[C@@H]1[C@@H]2[C@@H](O)C[C@]2(C=O)[C@@H](C(=O)CO)CC[C@@H]12 [ALDOSTERONE] | 0 |  |  | 1 | 1 | 1 | 0 |  | 0 | 1 | 1 | 0 | 1 | 1 | 1 |  | 1 | 0 | 1 |  | Growth Rate [2, 11]: 1; Growth Rate [3, 5]: 1; Growth Rate [3, 8]: 0; Growth Rate [3, 13]: 0
4 | CN(C)[C@H]1CCN(c2cc(-c3ccccc3)nc3ccnn23)C1 [(S)-ZINC-3573] |  |  | 0 | 0 | 0 | 0 | 1 | 0 |  | 0 | 0 | 0 | 0 | 0 | 1 | 0 | 0 | 0 |  |  | Growth Rate [1, 13]: 1; Growth Rate [1, 12]: 1; Growth Rate [3, 5]: 1
5 | CC(C)(C(=O)O)c1ccc(C(O)CCCN2CCC(C(O)(c3ccccc3)c3ccccc3)CC2)cc1.Cl (stereo unspecified) [FEXOFENADINE HYDROCHLORIDE] |  | 0 |  | 1 | 1 | 1 | 1 | 0 |  | 1 | 1 | 0 | 0 | 0 | 0 | 1 | 1 | 0 | 0 |  | Growth Rate [1, 13]: 0; Growth Rate [1, 12]: 0; Growth Rate [3, 5]: 1; Growth Rate [3, 8]: 1; Growth Rate [3, 13]: 1; Growth Rate [3, 12]: 1
6 | c1ccc(Nc2nc3c(s2)CCCc2[nH]ncc2-3)nc1 |  | 0 | 1 | 1 | 0 | 0 | 1 | 0 |  | 0 | 0 | 0 | 1 | 1 | 0 | 0 | 0 |  | 0 | 1 | Growth Rate [1, 13]: 1; Growth Rate [2, 13]: 1
7 | COc1cc(-c2cn(C)c(=O)c3cnccc23)c(OC)cc1CN(C)C | 0 |  | 0 | 1 | 0 | 1 | 1 |  |  | 0 | 0 | 0 | 0 | 0 | 0 |  | 1 | 0 | 1 | 1 | Growth Rate [1, 13]: 1; Growth Rate [2, 11]: 1; Growth Rate [3, 11]: 1
8 | CS(=O)(=O)NCC[C@H](NC(=O)c1cncc2c1cnn2-c1ccc(F)cc1)c1ccnc(S(C)(=O)=O)c1 [BI 9307] | 0 |  |  | 1 | 1 | 1 | 0 |  |  | 1 | 1 |  |  |  |  | 1 | 1 | 0 |  |  | Growth Rate [3, 11]: 0; Growth Rate [3, 8]: 0; Growth Rate [3, 13]: 1; Growth Rate [3, 12]: 0
9 | O=C1NC(c2ccccn2)Sc2ccccc21 (stereo unspecified) [BTZO-4] | 0 |  | 0 | 0 | 0 | 0 | 1 |  |  | 0 | 1 | 1 | 1 | 1 | 0 | 0 | 0 | 0 |  | 0 | Growth Rate [1, 8]: 1; Growth Rate [1, 13]: 1; Growth Rate [1, 12]: 1; Growth Rate [2, 13]: 1; Growth Rate [3, 12]: 1
10 | C#C[C@]1(O)CC[C@H]2[C@@H]3CCc4cc(O)ccc4[C@H]3CC[C@@]21C [ETHINYL ESTRADIOL] |  | 0 | 0 | 0 | 0 | 0 | -1 | 0 |  |  |  | 0 | 0 | 0 | 0 |  |  |  | 1 | 1 | 
11 | COC1CCN(c2cccc(-c3cc(NC(C)=O)nc(-n4nc(C)cc4C)n3)n2)CC1 | 0 |  |  | 0 | 0 | 0 | 0 |  |  | 0 | 0 | 1 | 1 | 1 | 0 | 0 | 0 | 0 | 0 |  | Growth Rate [3, 11]: 0; Growth Rate [3, 8]: 0; Growth Rate [3, 13]: 0
12 | COc1ccnc(N2CCC3(CCCN(Cc4c[nH]c5ccccc45)C3=O)CC2)n1 | 1 |  |  | 1 | 1 | 0 | 0 |  | 0 | 1 | 1 | 0 | 0 | 0 | 0 | 1 | 1 | 0 | 0 | 0 | Growth Rate [1, 8]: 0; Growth Rate [2, 13]: 0
13 | CC(=O)c1c(NS(C)(=O)=O)c2cc(-c3ccc(Cl)cc3)c(-c3ccc(Cl)cc3Cl)nc2n(C)c1=O [MRL-CB1-NC] | 0 | 1 |  | 1 | 1 | 1 | 1 | 0 | 1 | 0 | 0 | 0 | 0 | 0 | 0 | 0 | 0 | 0 | 1 |  | 
14 | Cc1c(NC(=O)c2cc(C(N)=O)nc3cc(F)ccc23)c(C(F)(F)F)nn1Cc1ccc(C(C)(C)C)cc1 [BAY-588] |  | 0 |  | 1 | 0 | 1 | 0 |  |  | 0 | 0 | 0 | 0 | 0 | 0 | 0 | 0 | 0 |  |  | Growth Rate [1, 13]: 1
15 | Nc1cc(F)ccc1NC(=O)/C=C/c1cnn(C/C=C/c2ccccc2)c1 |  | 1 | 0 | 1 | 0 | 0 | 0 |  | 1 |  | 1 |  |  | 1 | 1 |  |  | 0 |  | 0 | Growth Rate [2, 11]: 0; Growth Rate [2, 13]: 1; Growth Rate [3, 8]: 0; Growth Rate [3, 13]: 0; Growth Rate [3, 12]: 0
16 | CCCNS(=O)(=O)Nc1ncnc(OCCOc2ncc(Br)cn2)c1-c1ccc(Br)cc1 |  |  | 0 | 0 | 0 | 0 | 0 |  |  | 0 | 0 | 0 | 0 | 1 | 0 | 0 | 0 | 0 |  |  | 
17 | Cc1ccc(-c2ccc3c(ccc4sc5c(c43)NC[C@@H](C)NC5=O)n2)cn1 |  | 0 |  | 1 | 1 | 1 | 1 |  |  |  |  |  |  |  |  |  |  | 0 |  | 1 | 
18 | CCCc1c(OCCCOc2ccc(OCC(=O)O)cc2)ccc(C(C)=O)c1O | 0 | 1 |  | 0 | 1 | 0 | 1 | 0 |  | 1 | 1 | 1 | 1 | 1 | 1 | 1 | 1 | 0 | 1 |  | Growth Rate [1, 8]: 1; Growth Rate [1, 12]: 1; Growth Rate [2, 11]: 0; Growth Rate [3, 5]: 1; Growth Rate [3, 11]: 0
19 | Cc1nc(-c2ccc(C(F)(F)F)cc2)sc1COc1ccc([C@H](CC(=O)O)c2ccon2)cc1 |  | 0 |  | 0 | 0 | 0 |  | 0 |  | 0 | 0 | 0 | 1 | 1 | 0 | 0 | 0 | 0 | 0 |  | Growth Rate [1, 8]: 1; Growth Rate [1, 13]: 1; Growth Rate [1, 12]: 1; Growth Rate [2, 11]: 1; Growth Rate [3, 8]: 0; Growth Rate [3, 13]: 0
20 | CC(C)(C)OC(=O)N1CCCC1CNC1CCC(c2cc(F)ccc2F)(S(=O)(=O)c2ccc(Cl)cc2)CC1 (stereo unspecified) [GSI-NC] | 0 |  | 0 | 0 | 0 | 0 | 0 | 1 | 0 | 1 | 1 | 0 | 0 | 0 | 0 | 0 | 1 |  |  | 0 | Growth Rate [3, 5]: 0; Growth Rate [3, 11]: 1
